Test results: patent publication US20130197085A1, “AGENT AND METHOD FOR STABILIZING MEMBRANE PROTEIN” (priority 2007, published 2013)

Legend:
wild-type BSEP [1] = target: T1, wild-type BSEP (Homo sapiens, UniProt O95342, L339V); test: Cell surface biotinylation method, expression on the surface of MDCKII cells; assay type: cell-based; settings: 1 mM, 24 hours, FIG. 9 cell surface fraction
T1 construct: expressed in transfected cells; host or cells: MDCKII cells infected with recombinant adenovirus
Description: MDCKII cells were dispersed on a 6-well plate, resulting in a density of 2.5×10^5 cells/well. After completion of the culture for 24 hours, the confluent cells were infected with recombinant adenoviruses having the cDNAs of wild-type, E297G and D482G BSEPs, and GFP, at 200 MOI. After completion of the infection, the cells were cultured for 24 hours. […] After completion of the treatment for 24 hours, the cells were biotinylated (see Hayashi et al., Hepatology, 41: 916-924, 2005).

wild-type BSEP [2] = target: T1, wild-type BSEP; test: Transcellular transport assay of [^3H] TC across MDCKII monolayer; assay type: cell-based; settings: other carboxylic acids, 1 mM, 24 hours; FIG. 10
Description: MDCKII cells were dispersed on a Transwell membrane insert (pore size: […]; Falcon) of a 24-well plate, resulting in a density of 1.5×10^5 cells/insert. Two days after the culture, the confluent cells were infected with recombinant adenoviruses having the cDNAs of wild-type, E297G and D482G BSEPs, and GFP, at 50 MOI. […] After completion of the treatment for 24 hours, a transcellular transport assay was carried out (see Mita et al., Am J Physiol Gastrointest Liver Physiol 290: G550-G556, 2006).
The apparent efflux clearance across the apical membrane (PSapical) was calculated by dividing a steady rate of the transcellular transport of [^3H] TC for 2 hours by the intracellular concentration of the [^3H] TC at the termination of the experiment (2 hours later).

T1 sequence (O95342 whole entry L339V): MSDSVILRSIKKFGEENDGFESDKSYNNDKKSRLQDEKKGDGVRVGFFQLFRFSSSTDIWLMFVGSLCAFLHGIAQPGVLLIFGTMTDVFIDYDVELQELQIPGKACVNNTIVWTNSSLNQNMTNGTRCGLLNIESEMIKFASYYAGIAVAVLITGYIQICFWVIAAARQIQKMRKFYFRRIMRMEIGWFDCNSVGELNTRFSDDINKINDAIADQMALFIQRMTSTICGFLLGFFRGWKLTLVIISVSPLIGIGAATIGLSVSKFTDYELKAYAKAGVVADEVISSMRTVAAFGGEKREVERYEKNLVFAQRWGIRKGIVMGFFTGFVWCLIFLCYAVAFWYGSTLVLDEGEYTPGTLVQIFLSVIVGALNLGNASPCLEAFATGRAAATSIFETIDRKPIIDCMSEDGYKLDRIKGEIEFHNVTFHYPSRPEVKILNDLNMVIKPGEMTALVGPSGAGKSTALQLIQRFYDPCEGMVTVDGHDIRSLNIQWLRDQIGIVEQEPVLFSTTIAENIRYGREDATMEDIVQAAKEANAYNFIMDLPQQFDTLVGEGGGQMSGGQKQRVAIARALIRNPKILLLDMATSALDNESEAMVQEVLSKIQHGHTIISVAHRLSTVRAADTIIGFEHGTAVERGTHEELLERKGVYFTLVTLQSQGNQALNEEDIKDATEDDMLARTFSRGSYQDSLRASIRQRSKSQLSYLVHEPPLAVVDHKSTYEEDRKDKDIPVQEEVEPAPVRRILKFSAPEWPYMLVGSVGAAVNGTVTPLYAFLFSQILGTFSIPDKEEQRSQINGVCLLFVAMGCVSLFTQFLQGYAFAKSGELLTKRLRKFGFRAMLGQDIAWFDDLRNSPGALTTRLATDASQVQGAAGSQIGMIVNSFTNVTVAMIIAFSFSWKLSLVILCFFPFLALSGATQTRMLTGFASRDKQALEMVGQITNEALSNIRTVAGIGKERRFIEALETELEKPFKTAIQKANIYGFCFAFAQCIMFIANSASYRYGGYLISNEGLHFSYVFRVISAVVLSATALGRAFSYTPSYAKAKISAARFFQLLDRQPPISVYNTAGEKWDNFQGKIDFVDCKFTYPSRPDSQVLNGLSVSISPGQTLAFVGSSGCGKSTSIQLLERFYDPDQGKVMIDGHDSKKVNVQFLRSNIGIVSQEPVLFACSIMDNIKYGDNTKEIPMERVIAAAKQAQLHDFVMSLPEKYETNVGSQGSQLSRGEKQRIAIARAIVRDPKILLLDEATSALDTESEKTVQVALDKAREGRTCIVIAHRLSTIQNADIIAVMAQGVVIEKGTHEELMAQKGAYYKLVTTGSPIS

| Structure (SMILES) | expression level of wild-type BSEP (wild-type BSEP [1]) | efflux of [^3H] TC from the base side to the apical side (in words) (wild-type BSEP [2]) |
| --- | --- | --- |
| CCCCCCCC(=O)O [octanoic acid] | an increase in the expression level was observed | – |
| CCC(=O)O [propionic acid] | – | increased |
| CCCC(=O)O [butanoic acid] | – | increased |
| CCCCCCCCCC(=O)O [decanoic acid] | – | increased |
